Data: PubChem BioAssay (NCI)
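Briefly, cells in 96-well plates were exposed to five compound concentrations for 48 h, and endpoints were estimated by linear interpolation. TGI denotes the concentration required for complete inhibition of growth.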

Columns and labels:
Assay in all cases: inhibition of tumour cell growth, NCI panel, 48 h
[1] = system: MALME-3M melanoma
[2] = system: EKVX NSCLC
[3] = system: M14 melanoma
[4] = system: SNB-19 CNS
[5] = system: CCRF-CEM leukemia
[6] = system: U251 CNS
[7] = system: NCI-H460 lung
[8] = system: HOP-62 NSCLC
[9] = system: HL-60(TB) leukemia
[10] = system: ACHN renal
[11] = system: NCI-H23 lung
[12] = system: LOX IMVI melanoma
[13] = system: TK-10 renal
[14] = system: SK-OV-3 ovarian
[15] = system: RXF 393 renal
[16] = system: OVCAR-3 ovarian
[17] = system: HCT-15 colon
[18] = system: M19-MEL melanoma
[19] = system: DMS 114 small cell lung
[20] = system: HCT-116 colon
[21] = system: SW-620 colon
[22] = system: UACC-257 melanoma
[23] = system: MOLT-4 leukemia
[24] = system: DMS 273 small cell lung
[25] = system: KM12 colon
[26] = system: RPMI-8226 leukemia
[27] = system: OVCAR-8 ovarian
[28] = system: XF 498 CNS
[29] = system: A549 NSCLC
[30] = system: NCI-H226 lung
[31] = system: IGROV1 ovarian
[32] = system: SK-MEL-2 melanoma
[33] = system: SF-295 CNS
[34] = system: NCI-H522 lung
[35] = system: 786-0 renal
[36] = system: SN12C renal
[37] = system: DLD-1 colon
[38] = system: UACC-62 melanoma
[39] = system: SK-MEL-28 melanoma
[40] = system: UO-31 renal
[41] = system: SK-MEL-5 melanoma
[42] = system: K-562 leukemia
[43] = system: COLO 205 colon
[44] = system: SF-539 CNS
[45] = system: HOP-18 NSCLC
[46] = system: PC-3 prostate
[47] = system: DU-145 prostate
[48] = system: NCI/ADR-RES ovarian
[49] = system: SF-268 CNS
[50] = system: SR leukemia
[51] = system: CAKI-1 renal
[52] = system: OVCAR-4 ovarian
[53] = system: HOP-92 NSCLC
[54] = system: HCC-2998 colon
[55] = system: MDA-MB-231 breast
[56] = system: BT-549 breast
[57] = system: OVCAR-5 ovarian
[58] = system: T-47D breast
[59] = system: MDA-MB-435
[60] = system: HT29 colon
[61] = system: HS 578T breast
[62] = system: SNB-75 CNS
[63] = system: LXFL 529 NSCLC
[64] = system: SNB-78 CNS
[65] = system: A498 renal
[66] = system: KM20L2 colon
[67] = system: MDA-N

What does the source list for `O=c1ccc2ccc(O)c3c4c(=O)ccc5ccc(O)c(c1c23)c54`?
TGI [1]: 1.83 µM; TGI [2]: 8.46 µM; TGI [3]: 3.22 µM; TGI [4]: 4.85 µM; TGI [5]: 3.77 µM; TGI [6]: 3.3 µM; TGI [7]: 11.6 µM; TGI [8]: 4.86 µM; TGI [9]: 3.64 µM; TGI [10]: 6.75 µM; TGI [11]: 3.46 µM; TGI [12]: 2.63 µM; TGI [13]: 5.86 µM; TGI [14]: 8.61 µM; TGI [15]: 2.42 µM; TGI [16]: 11.7 µM; TGI [17]: 2.69 µM; TGI [18]: 2.16 µM; TGI [19]: 3.63 µM; TGI [20]: 2.83 µM; TGI [21]: 5.08 µM; TGI [22]: 6.71 µM; TGI [23]: 8.53 µM; TGI [24]: 3.97 µM; TGI [25]: 3.43 µM; TGI [26]: 9.12 µM; TGI [27]: 10.7 µM; TGI [28]: 3.27 µM; TGI [29]: 12.2 µM; TGI [30]: 5.28 µM; TGI [31]: 3.64 µM; TGI [32]: 3.34 µM; TGI [33]: 9.29 µM; TGI [34]: 3.08 µM; TGI [35]: 4.81 µM; TGI [36]: 4.37 µM; TGI [37]: 3.13 µM; TGI [38]: 1.65 µM; TGI [39]: 5.28 µM; TGI [40]: 3.71 µM; TGI [41]: 2.59 µM; TGI [42]: 5.59 µM; TGI [43]: 3.73 µM; TGI [44]: 3.2 µM; TGI [45]: 3.72 µM

How did the TGI [46] turn out when `O=c1[nH]c2ccccc2nc1CBr` was run?
The TGI was 25.1 µM.

What about the TGI [1] of the same compound?
Its TGI is 8.66 µM.

And the TGI [47]?
The TGI was 37.1 µM.

What about the TGI [2] of the same compound?
Its TGI is 9.87 µM.

And the TGI [48]?
The TGI was 51.1 µM.

And the TGI [3]?
The TGI was 22.8 µM.

And the TGI [4]?
The TGI was 52 µM.

And the TGI [5]?
The TGI was 1.45 µM.

What about the TGI [6] of the same compound?
The TGI was 23.8 µM.

And the TGI [7]?
Its TGI is 29 µM.

What about the TGI [8] of the same compound?
The TGI was 45 µM.

And the TGI [9]?
The TGI was 0.721 µM.

What about the TGI [49] of the same compound?
The TGI was 31.1 µM.

What about the TGI [50] of the same compound?
The TGI was 2.44 µM.

What about the TGI [10] of the same compound?
The TGI was 27 µM.

And the TGI [11]?
The TGI was 29.1 µM.

And the TGI [51]?
Its TGI is 19.6 µM.

And the TGI [12]?
Its TGI is 3.24 µM.

What about the TGI [13] of the same compound?
The TGI was 20.7 µM.

And the TGI [14]?
The TGI was 53.3 µM.

And the TGI [15]?
Its TGI is 7.72 µM.

And the TGI [16]?
Its TGI is 4.22 µM.

And the TGI [17]?
Its TGI is 26.2 µM.

And the TGI [18]?
The TGI was 22.8 µM.

What about the TGI [52] of the same compound?
Its TGI is 13.4 µM.

What about the TGI [20] of the same compound?
The TGI was 21.3 µM.

What about the TGI [21] of the same compound?
The TGI was 17.5 µM.

What about the TGI [22] of the same compound?
The TGI was 27.3 µM.

What about the TGI [23] of the same compound?
Its TGI is 4.35 µM.

What about the TGI [53] of the same compound?
The TGI was 11.8 µM.

And the TGI [24]?
The TGI was 10.4 µM.

What about the TGI [54] of the same compound?
Its TGI is 56.2 µM.

And the TGI [25]?
The TGI was 10.1 µM.

What about the TGI [26] of the same compound?
The TGI was 9.97 µM.

And the TGI [55]?
The TGI was 23.3 µM.

And the TGI [27]?
Its TGI is 34.7 µM.

And the TGI [28]?
Its TGI is 3.51 µM.

And the TGI [29]?
Its TGI is 39.2 µM.

What about the TGI [56] of the same compound?
Its TGI is 21.4 µM.

And the TGI [57]?
The TGI was 33.7 µM.

What about the TGI [30] of the same compound?
Its TGI is 37.3 µM.

And the TGI [31]?
Its TGI is 11.3 µM.

And the TGI [32]?
The TGI was 22.6 µM.

And the TGI [58]?
The TGI was 31.1 µM.

What about the TGI [33] of the same compound?
The TGI was 43.2 µM.

And the TGI [34]?
Its TGI is 1.49 µM.

And the TGI [59]?
Its TGI is 25.5 µM.

What about the TGI [35] of the same compound?
Its TGI is 9.11 µM.

And the TGI [36]?
Its TGI is 24.5 µM.

And the TGI [37]?
Its TGI is 22.8 µM.

What about the TGI [60] of the same compound?
The TGI was 22.8 µM.

And the TGI [61]?
Its TGI is 42 µM.

What about the TGI [38] of the same compound?
Its TGI is 21.3 µM.

What about the TGI [39] of the same compound?
The TGI was 25.6 µM.

And the TGI [40]?
The TGI was 11.2 µM.

What about the TGI [62] of the same compound?
The TGI was 34.2 µM.

And the TGI [63]?
Its TGI is 3.21 µM.

And the TGI [64]?
Its TGI is 65.6 µM.

What about the TGI [41] of the same compound?
The TGI was 23.2 µM.

What about the TGI [42] of the same compound?
The TGI was 9.5 µM.

And the TGI [65]?
The TGI was over 53.1 µM.

What about the TGI [43] of the same compound?
The TGI was 17.6 µM.

What about the TGI [44] of the same compound?
The TGI was 21.4 µM.

What about the TGI [45] of the same compound?
Its TGI is 19 µM.

And the TGI [66]?
The TGI was 32.9 µM.

What about the TGI [67] of the same compound?
Its TGI is 24.6 µM.

What does the source list for `CSC1(C)CC2C(CC1N1CCOCC1)C2(C)C` (configuration not stated)?
TGI [1]: > 100 µM; TGI [3]: > 100 µM; TGI [5]: > 100 µM; TGI [6]: > 100 µM; TGI [7]: > 100 µM; TGI [9]: > 100 µM; TGI [49]: > 100 µM; TGI [10]: > 100 µM; TGI [11]: > 100 µM; TGI [13]: > 100 µM; TGI [14]: > 100 µM; TGI [16]: > 100 µM; TGI [17]: > 100 µM; TGI [18]: > 100 µM; TGI [52]: > 100 µM; TGI [19]: > 100 µM; TGI [20]: > 100 µM; TGI [22]: > 100 µM; TGI [23]: > 100 µM; TGI [53]: > 100 µM; TGI [24]: > 100 µM; TGI [54]: > 100 µM; TGI [25]: > 100 µM; TGI [26]: > 100 µM; TGI [27]: > 100 µM; TGI [28]: > 100 µM; TGI [29]: > 100 µM; TGI [57]: > 100 µM; TGI [30]: > 100 µM; TGI [31]: > 100 µM; TGI [32]: > 100 µM; TGI [33]: > 100 µM; TGI [35]: > 100 µM; TGI [36]: > 100 µM; TGI [37]: > 100 µM; TGI [60]: > 100 µM; TGI [39]: > 100 µM; TGI [40]: > 100 µM; TGI [62]: > 100 µM; TGI [63]: > 100 µM; TGI [64]: > 100 µM; TGI [41]: > 100 µM; TGI [42]: > 100 µM; TGI [43]: > 100 µM; TGI [44]: > 100 µM; TGI [45]: > 100 µM
